Experimental data reported in US20250304567A1, “PYRROLIDIONE DERIVATIVES AS INHIBITORS OF NF KAPPA B INDUCING KINASE” (priority 2022, published 2025).
Where two headings read alike, the source gives them in different places.

Experiments:
[1] = biological target: Recombinant Human NF-kappaB-Inducing Kinase (NIK/MAP3K14) (Homo sapiens, UniProt Q99558); experiment: Inhibition of auto-phosphorylation of recombinant human NIK/MAP3K14 activity (AlphaScreen); type: biochemical; settings: 5 μM ATP, 1 nM NIK, average if tested more than once
How it was run: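 GST-tagged NIK (1 nM) auto-phosphorylation with 5 μM ATP, 2 h at 25 °C, pH 7.5 Tris buffer, 0.7% DMSO; stopped with anti-phospho-IKK Ser176/180 antibody and read by AlphaScreen. Signal normalized to full-activity and no-enzyme/no-ATP controls; IC50 from sigmoidal fit of % inhibition vs log concentration.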

[2] = test system: p-IKKa levels in L363 (NIK translocated multiple myeloma) cells; experiment: Effect of compounds on p-IKKa levels in L363 (NIK translocated multiple myeloma) cells (AlphaLISA SureFire Ultra p-IKKa Ser176/180); type: cell-based, human; settings: average if tested more than once, read-out: Assay 2 IC50
How it was run: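 L363 multiple myeloma cells, BAFF-stimulated overnight (250 ng/ml), then 6 h at 37 °C with compound (11-point 1:3 series, 0.3% DMSO) plus BAFF and 10 μM MG132. p-IKKa Ser176/180 read by AlphaLISA SureFire Ultra; IC50 from sigmoidal fit normalised to stimulated and unstimulated controls.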

[3] = Homo sapiens, L-363, p-IKKa levels in L363 cells

Recombinant Human NF-kappaB-Inducing Kinase (NIK/MAP3K14), sequence (Q99558 whole entry): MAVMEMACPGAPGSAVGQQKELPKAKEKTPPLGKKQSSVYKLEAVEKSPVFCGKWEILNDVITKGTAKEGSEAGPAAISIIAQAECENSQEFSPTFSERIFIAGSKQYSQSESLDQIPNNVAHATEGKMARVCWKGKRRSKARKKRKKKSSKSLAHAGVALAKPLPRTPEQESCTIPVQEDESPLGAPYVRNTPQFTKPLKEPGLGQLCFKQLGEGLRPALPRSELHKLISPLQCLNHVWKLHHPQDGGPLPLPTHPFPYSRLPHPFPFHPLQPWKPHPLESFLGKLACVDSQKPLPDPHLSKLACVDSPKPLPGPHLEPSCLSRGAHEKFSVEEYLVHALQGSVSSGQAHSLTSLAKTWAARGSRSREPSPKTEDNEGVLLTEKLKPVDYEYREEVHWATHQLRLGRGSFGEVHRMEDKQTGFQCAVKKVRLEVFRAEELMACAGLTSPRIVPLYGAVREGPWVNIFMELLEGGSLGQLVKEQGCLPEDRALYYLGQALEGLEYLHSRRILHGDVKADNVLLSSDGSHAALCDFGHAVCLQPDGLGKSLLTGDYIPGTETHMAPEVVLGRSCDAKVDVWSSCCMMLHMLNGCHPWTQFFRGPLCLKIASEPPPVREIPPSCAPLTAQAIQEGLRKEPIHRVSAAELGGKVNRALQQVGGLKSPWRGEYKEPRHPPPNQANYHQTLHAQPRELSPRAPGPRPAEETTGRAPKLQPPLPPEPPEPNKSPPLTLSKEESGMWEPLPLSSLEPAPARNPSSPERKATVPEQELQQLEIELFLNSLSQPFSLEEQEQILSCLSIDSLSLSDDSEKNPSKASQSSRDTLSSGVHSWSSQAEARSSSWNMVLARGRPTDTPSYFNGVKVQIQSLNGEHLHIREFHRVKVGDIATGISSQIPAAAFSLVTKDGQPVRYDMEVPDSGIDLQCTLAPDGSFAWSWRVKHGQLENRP

SMILES | IC50 [1] | IC50 [2, 3] | IC50 ([2]; p-IKKa levels in L363 cells)
CNC(=O)c1ccc(C)c(Nc2nccc(-c3csc(-c4cccc([C@]5(O)CCN(C)C5=O)c4)n3)n2)c1 [Example 10, (R)-3-((4-(2-(3-(3-Hydroxy-1-methyl-2-oxopyrrolidin-3-yl)phenyl)thiazol-4-yl)pyrimidin-2-yl)amino)-N,4-dimethylbenzamide] | < 100 nM | 100 to 500 nM | 
CN1CC[C@@](O)(c2cccc(-c3nc(-c4ccnc(Nc5cn(C6CCC6)cn5)n4)cs3)c2)C1=O [Example 124, (R)-3-(3-(4-(2-((1-cyclobutyl-1H-imidazol-4-yl)amino)pyrimidin-4-yl)thiazol-2-yl)phenyl)-3-hydroxy-1-methylpyrrolidin-2-one] | < 100 nM | > 501 nM | 
C[C@H](Nc1nccc(-c2csc(-c3cccc([C@]4(O)CCN(C)C4=O)c3)n2)n1)c1cncn1C (single isomer, unassigned) [Example 133] | < 100 nM | > 501 nM | 
Cc1cccc(CNc2nccc(-c3csc(-c4cccc([C@]5(O)CCN(C)C5=O)c4)n3)n2)n1 [Example 205] | < 100 nM | > 501 nM | 
CN1CC[C@@](O)(c2cccc(-c3nc(-c4ccnc(NCc5ncccn5)n4)cs3)c2)C1=O [Example 218] | 100 to 500 nM | > 501 nM | 
CN1CC[C@@](O)(c2cccc(-c3nc(-c4ccnc(NCc5cnccn5)n4)cs3)c2)C1=O [Example 194] | 100 to 500 nM | > 501 nM | 
C[C@@H](Nc1nccc(-c2nc(-c3cc([C@]4(O)CCN(C)C4=O)ccn3)cs2)n1)c1ccn(C)n1 (single isomer, unassigned) [Example 157, (R)-3-hydroxy-1-methyl-3-(2-(2-(2-(((R)-1-(1-methyl-1H-pyrazol-3-yl)ethyl)amino)pyrimidin-4-yl)thiazol-4-yl)pyridin-4-yl)pyrrolidin-2-one or (S)-3-hydroxy-1-methyl-3-(2-(2-(2-(((R)-1-(1-methyl-1H-pyrazol-3-yl)ethyl)amino)pyrimidin-4-yl)thiazol-4-yl)pyridin-4-yl)pyrrolidin-2-one] | 100 to 500 nM | > 501 nM | 
CN(C)C(=O)Cn1ccc(Nc2nccc(-c3csc(-c4cccc([C@]5(O)CCN(C)C5=O)c4)n3)n2)n1 [Example 262, (R)-2-(3-((4-(2-(3-(3-Hydroxy-1-methyl-2-oxopyrrolidin-3-yl)phenyl)thiazol-4-yl)pyrimidin-2-yl)amino)-1H-pyrazol-1-y)-N,N-dimethylacetamide] | < 100 nM | > 501 nM | 
CN1CC[C@](O)(c2cc(-c3csc(-c4ccnc(Nc5ccn(C)n5)n4)n3)ccc2F)C1=O (single isomer, unassigned) [Example 25] | 100 to 500 nM | > 501 nM | 
CN1CC[C@@](O)(c2cccc(-c3nc(-c4ccnc(Nc5ccnn5C)n4)cs3)c2)C1=O [Example 176] | < 100 nM | < 100 nM | 
CC(Nc1nccc(-c2nc(-c3cccc(C4(O)CCN(C)C4=O)c3)cs2)n1)c1cnn(C)c1 (single isomer, unassigned) [Example 40] | < 100 nM |  | > 501 nM
Cc1cc(CNc2nccc(-c3csc(-c4cccc([C@]5(O)CCN(C)C5=O)c4)n3)n2)ccn1 [Example 202] | < 100 nM | > 501 nM | 
CN1CC[C@@](O)(c2cccc(-c3cccc(-c4ccnc(Nc5ccn(C)n5)n4)n3)c2)C1=O [Example 22, (R)-3-Hydroxy-1-methyl-3-(3-(6-(2-((1-methyl-1H-pyrazol-3-yl)amino)pyrimidin-4-yl)pyridin-2-yl)phenyl)pyrrolidin-2-one] | > 501 nM | > 501 nM | 
CN1CC[C@@](O)(c2cccc(-c3nc(-c4ccnc(N[C@H]5CCC[C@H](O)C5)n4)cs3)c2)C1=O [Example 254] | 100 to 500 nM | > 501 nM | 
CN1CC[C@@](O)(c2cccc(-c3nc(-c4ccnc(NC[C@@H]5CCCO5)n4)cs3)c2)C1=O [Example 122, (R)-3-hydroxy-1-methyl-3-(3-(4-(2-((((S)-tetrahydrofuran-2-yl)methyl)amino)pyrimidin-4-yl)thiazol-2-yl)phenyl)pyrrolidin-2-one] | < 100 nM | > 501 nM | 
CN1CC[C@@](O)(c2cccc(-c3nc(-c4ccnc(NC5CC6(CC(O)C6)C5)n4)cs3)c2)C1=O (stereo partly shown) [Example 188] | 100 to 500 nM | > 501 nM | 

SMILES | IC50 [1] | IC50 [2, 3] | IC50 ([2]; p-IKKa levels in L363 cells)
CN1CCC(O)(c2cc(F)cc(-c3csc(-c4ccnc(Nc5ccn(C)n5)n4)n3)c2)C1=O (single isomer, unassigned) [Example 27, 3-(3-fluoro-5-(2-(2-((1-methyl-1H-pyrazol-3-yl)amino)pyrimidin-4-yl)thiazol-4-yl)phenyl)-3-hydroxy-1-methylpyrrolidin-2-one] | < 100 nM |  | 100 to 500 nM
Cc1nocc1Nc1nccc(-c2csc(-c3cccc([C@]4(O)CCN(C)C4=O)c3)n2)n1 [Example 275, (R)-3-Hydroxy-1-methyl-3-(3-(4-(2-((3-methylisoxazol-4-yl)amino)pyrimidin-4-yl)thiazol-2-yl)phenyl)pyrrolidin-2-one] | < 100 nM | < 100 nM | 
CN1CC[C@@](O)(c2ccnc(-c3ccn(-c4ccnc(Nc5cnn6ccccc56)n4)n3)c2)C1=O (single isomer, unassigned) [Example 153, (R)-3-hydroxy-1-methyl-3-(2-(1-(2-(pyrazolo[1,5-a]pyridin-3-ylamino)pyrimidin-4-yl)-1H-pyrazol-3-yl)pyridin-4-yl)pyrrolidin-2-one or (S)-3-hydroxy-1-methyl-3-(2-(1-(2-(pyrazolo[1,5-a]pyridin-3-ylamino)pyrimidin-4-yl)-1H-pyrazol-3-yl)pyridin-4-yl)pyrrolidin-2-one] | < 100 nM | < 100 nM | 
Cc1cn(-c2ccnc(Nc3ccn(C)n3)n2)nc1-c1cc(C2(O)CCN(C)C2=O)ccn1 (racemic) [Example 32, (R, S)-3-Hydroxy-1-methyl-3-(2-(4-methyl-1-(2-((1-methyl-1H-pyrazol-3-yl)amino)pyrimidin-4-yl)-1H-pyrazol-3-yl)pyridin-4-yl)pyrrolidin-2-one] | < 100 nM | > 501 nM | 
C[C@H](Nc1nccc(-n2ccc(-c3cccc([C@]4(O)CCN(C)C4=O)c3)n2)n1)c1cnn(C)c1 (single isomer, unassigned) [Example 93] | < 100 nM | 100 to 500 nM | 
CN1CC[C@@](O)(c2cccc(-c3nc(-c4ccnc(NCCc5cnn(C)c5)n4)cs3)c2)C1=O [Example 187] | < 100 nM | > 501 nM | 
CN1CC[C@@](O)(c2cccc(-c3nc(-c4ccnc(N[C@@H]5[C@@H]6COC[C@@H]65)n4)cs3)c2)C1=O [Example 214] | 100 to 500 nM | > 501 nM | 
CN1CC[C@@](O)(c2cccc(-c3csc(-c4ccnc(Nc5cnn(C)c5)n4)n3)c2)C1=O [Example 79, (R)-3-hydroxy-1-methyl-3-(3-(2-(2-((1-methyl-1H-pyrazol-4-yl)amino)pyrimidin-4-yl)thiazol-4-yl)phenyl)pyrrolidin-2-one] | < 100 nM | > 501 nM | 
C[C@@H](Nc1nccc(-c2csc(-c3cccc([C@]4(O)CCN(C)C4=O)c3)n2)n1)c1cncn1C (single isomer, unassigned) [Example 134] | > 501 nM | > 501 nM | 
Cc1ncc(C#N)cc1Nc1nccc(-c2csc(-c3cccc([C@]4(O)CCN(C)C4=O)c3)n2)n1 [Example 8, (R)-5-((4-(2-(3-(3-Hydroxy-1-methyl-2-oxopyrrolidin-3-yl)phenyl)thiazol-4-yl)pyrimidin-2-yl)amino)-6-methylnicotinonitrile] | < 100 nM | 100 to 500 nM | 
Cc1cnc(Nc2ccn(C)n2)nc1-c1csc(-c2cccc([C@]3(O)CCN(C)C3=O)c2)n1 [Example 16, (R)-3-Hydroxy-1-methyl-3-(3-(4-(5-methyl-2-((1-methyl-1H-pyrazol-3-yl)amino)pyrimidin-4-yl)thiazol-2-yl)phenyl)pyrrolidin-2-one] | 100 to 500 nM | > 501 nM | 
CN1CC[C@@](O)(c2cccc(-c3nc(-c4ccnc(Nc5cc(C(F)(F)F)n(C)n5)n4)cs3)c2)C1=O [Example 256, (R)-3-Hydroxy-1-methyl-3-(3-(4-(2-((1-methyl-5-(trifluoromethyl)-1H-pyrazol-3-yl)amino)pyrimidin-4-yl)thiazol-2-yl)phenyl)pyrrolidin-2-one] | < 100 nM | > 501 nM | 
CN1CCC(O)(c2ccnc(-c3nc(-c4ccnc(Nc5ccn(C)n5)n4)cs3)c2)C1=O (single isomer, unassigned) [Example 34, 3-hydroxy-1-methyl-3-(2-(4-(2-((1-methyl-1H-pyrazol-3-yl)amino)pyrimidin-4-yl)thiazol-2-yl)pyridin-4-yl)pyrrolidin-2-one] | < 100 nM |  | 100 to 500 nM
CN1CC[C@@](O)(c2cccc(-c3nc(-c4ccnc(Nc5cnn(CC6CCCO6)c5)n4)cs3)c2)C1=O (stereo partly drawn) [Example 72, (R)-3-hydroxy-1-methyl-3-(3-(4-(2-((1-(((R,S)-tetrahydrofuran-2-yl)methyl)-1H-pyrazol-4-yl)amino)pyrimidin-4-yl)thiazol-2-yl)phenyl)pyrrolidin-2-one] | < 100 nM | 100 to 500 nM | 
CN1CC[C@@](O)(c2cccc(-c3nc(-c4ccnc(NCCC(F)(F)F)n4)cs3)c2)C1=O [Example 236] | < 100 nM | > 501 nM | 
CN1CC[C@@](O)(c2cc(-c3csc(-c4ccnc(Nc5ccn(C)n5)n4)n3)ccc2F)C1=O (single isomer, unassigned) [Example 24] | > 501 nM | > 501 nM | 
